From ChEMBL document CHEMBL1124450, “Identification of structural requirements for analogues of atrial natriuretic peptide (ANP) to discriminate between ANP receptor subtypes” (J Med Chem, 1989) come the findings set out here.

The nature of experiment [1]: Ratio of IC50 of guanylate cyclase coupled receptor binding and non-guanylate cyclase coupled binding.
Experiment [2] can be described thus: Inhibitory activity against non-guanylate cyclase receptor binding site in rabbit lung by using [125I]-ANP-(103-126). Also noted: species or system Oryctolagus cuniculus.
In experiment [3] the target is T1, Atrial natriuretic peptide receptor (Homo sapiens, UniProt P20594+P16066+P17342).
T1 sequence (P20594 whole entry): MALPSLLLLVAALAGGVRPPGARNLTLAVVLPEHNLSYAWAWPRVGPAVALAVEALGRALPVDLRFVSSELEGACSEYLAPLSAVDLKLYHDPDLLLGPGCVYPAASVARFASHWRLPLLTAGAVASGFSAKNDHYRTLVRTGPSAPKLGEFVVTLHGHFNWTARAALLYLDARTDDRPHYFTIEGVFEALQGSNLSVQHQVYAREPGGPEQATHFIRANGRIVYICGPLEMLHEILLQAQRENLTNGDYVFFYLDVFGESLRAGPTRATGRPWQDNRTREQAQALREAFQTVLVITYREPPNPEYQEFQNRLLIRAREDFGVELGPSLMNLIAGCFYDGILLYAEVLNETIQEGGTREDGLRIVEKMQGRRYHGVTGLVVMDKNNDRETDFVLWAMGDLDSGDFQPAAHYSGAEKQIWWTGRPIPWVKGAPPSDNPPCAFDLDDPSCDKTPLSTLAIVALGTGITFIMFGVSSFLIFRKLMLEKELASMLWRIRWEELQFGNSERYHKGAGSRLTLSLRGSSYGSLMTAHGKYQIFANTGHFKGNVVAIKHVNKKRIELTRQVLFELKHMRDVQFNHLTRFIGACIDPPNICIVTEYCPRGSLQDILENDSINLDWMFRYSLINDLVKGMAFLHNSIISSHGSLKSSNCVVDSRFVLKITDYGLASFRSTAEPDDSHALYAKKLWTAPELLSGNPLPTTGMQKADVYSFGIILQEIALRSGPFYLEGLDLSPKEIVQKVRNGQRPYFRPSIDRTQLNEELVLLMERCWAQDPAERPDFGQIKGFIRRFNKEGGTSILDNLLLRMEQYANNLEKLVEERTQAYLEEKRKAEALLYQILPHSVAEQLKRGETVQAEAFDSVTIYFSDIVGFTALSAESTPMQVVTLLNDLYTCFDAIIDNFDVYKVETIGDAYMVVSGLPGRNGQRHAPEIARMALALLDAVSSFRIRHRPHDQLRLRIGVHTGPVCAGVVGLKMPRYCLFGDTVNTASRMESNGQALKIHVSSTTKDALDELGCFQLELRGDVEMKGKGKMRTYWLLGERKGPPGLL
T1 sequence (P16066 whole entry): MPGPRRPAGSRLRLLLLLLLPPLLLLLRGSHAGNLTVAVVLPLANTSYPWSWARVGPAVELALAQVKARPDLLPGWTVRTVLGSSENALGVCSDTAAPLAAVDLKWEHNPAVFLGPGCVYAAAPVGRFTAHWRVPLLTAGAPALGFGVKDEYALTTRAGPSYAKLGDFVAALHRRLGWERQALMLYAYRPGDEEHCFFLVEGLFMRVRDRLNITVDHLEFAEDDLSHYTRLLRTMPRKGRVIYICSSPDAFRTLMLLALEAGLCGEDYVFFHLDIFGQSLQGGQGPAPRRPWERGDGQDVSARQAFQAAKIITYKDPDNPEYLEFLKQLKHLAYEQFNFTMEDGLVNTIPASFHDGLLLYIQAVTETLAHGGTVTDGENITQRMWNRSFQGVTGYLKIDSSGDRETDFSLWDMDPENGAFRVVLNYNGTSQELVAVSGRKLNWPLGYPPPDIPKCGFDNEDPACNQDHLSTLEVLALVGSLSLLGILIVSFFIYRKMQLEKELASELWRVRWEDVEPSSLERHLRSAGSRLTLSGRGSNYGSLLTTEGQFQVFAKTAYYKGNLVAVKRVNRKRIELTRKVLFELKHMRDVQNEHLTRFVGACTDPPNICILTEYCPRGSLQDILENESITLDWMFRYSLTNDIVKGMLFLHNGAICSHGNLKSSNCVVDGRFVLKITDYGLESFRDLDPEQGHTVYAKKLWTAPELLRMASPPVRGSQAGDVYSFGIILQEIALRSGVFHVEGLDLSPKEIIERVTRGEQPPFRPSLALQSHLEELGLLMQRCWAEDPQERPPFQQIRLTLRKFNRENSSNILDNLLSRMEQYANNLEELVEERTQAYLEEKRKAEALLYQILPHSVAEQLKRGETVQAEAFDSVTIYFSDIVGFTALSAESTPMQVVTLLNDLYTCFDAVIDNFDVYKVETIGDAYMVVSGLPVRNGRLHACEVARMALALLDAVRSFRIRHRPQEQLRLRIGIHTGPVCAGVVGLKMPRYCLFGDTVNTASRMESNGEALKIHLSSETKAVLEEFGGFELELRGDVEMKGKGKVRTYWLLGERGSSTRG
T1 sequence (P17342 whole entry): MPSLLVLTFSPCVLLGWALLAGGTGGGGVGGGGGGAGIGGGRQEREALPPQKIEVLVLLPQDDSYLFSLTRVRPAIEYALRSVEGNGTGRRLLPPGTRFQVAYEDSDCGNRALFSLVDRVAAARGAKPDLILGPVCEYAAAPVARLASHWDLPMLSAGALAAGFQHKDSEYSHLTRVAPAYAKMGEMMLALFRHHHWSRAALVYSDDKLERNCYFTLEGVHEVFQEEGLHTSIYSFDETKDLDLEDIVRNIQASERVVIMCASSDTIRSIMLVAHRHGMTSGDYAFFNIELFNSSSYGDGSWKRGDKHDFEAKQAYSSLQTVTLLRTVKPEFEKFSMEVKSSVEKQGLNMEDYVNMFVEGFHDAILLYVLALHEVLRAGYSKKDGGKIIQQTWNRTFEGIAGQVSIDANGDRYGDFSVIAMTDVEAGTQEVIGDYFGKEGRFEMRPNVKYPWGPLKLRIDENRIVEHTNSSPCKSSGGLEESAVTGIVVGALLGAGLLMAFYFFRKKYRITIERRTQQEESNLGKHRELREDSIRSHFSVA
Kind of experiment: Inhibitory activity against guanylate cyclase coupled receptor binding site in rabbit lung by using [125I]-ANP-(103-126). It is filed as protein assay, Oryctolagus cuniculus. The note with it: target entry is the homologue from another species.

pIC50: −log10 of the molar value. Residues, ends and D or L forms follow the SMILES beside them. Bounds are passed on as bounds.

By pIC50 is commonly meant −log10 of the IC50, conventionally taken in molar units. A high value points to a low IC50. By IC50 is commonly meant the midpoint of a concentration-inhibition curve. Low values mean higher potency, high ones lower potency. Take `CC[C@H](C)[C@@H]1NC(=O)[C@H](CCCN=C(N)N)NC(=O)[C@H](CC(=O)O)NC(=O)[C@H]([C@@H](C)CC)NC(=O)[C@H](CCCN=C(N)N)NC(=O)CNC(=O)[C@@H](NC(=O)[C@H](CO)NC(=O)[C@@H](N)CO)CSSC[C@H](C(=O)N[C@@H](CC(N)=O)C(=O)N[C@@H](CO)C(=O)N[C@@H](Cc2ccccc2)C(=O)N[C@@H](CCCN=C(N)N)C(N)=O)NC(=O)CNC(=O)[C@H](CC(C)C)NC(=O)CNC(=O)[C@H](CO)NC(=O)CNC1=O`: the Ratio in experiment [1] is above 1000. In experiment [2], this compound had a pIC50 of 10.00. Also, the IC50 in experiment [3] is above 100 nM.

Regarding `CC[C@H](C)[C@H](NC(=O)[C@H](CCCN=C(N)N)NC(=O)[C@H](CC(=O)O)NC(=O)[C@@H](NC(=O)[C@H](CCCN=C(N)N)NC(=O)CNC(=O)CNC(=O)[C@H](Cc1ccccc1)NC(=O)[C@@H](N)CS)[C@@H](C)CC)C(=O)NCC(N)=O` (H-CFGGRIDRIG-NH2), the Ratio in experiment [1] is above 357. The pIC50 in experiment [2] was 9.55. The same compound had an IC50 in experiment [3] above 100 nM.

For `CC[C@H](C)[C@H](NC(=O)[C@H](CCCN=C(N)N)NC(=O)[C@H](CC(=O)O)NC(=O)[C@@H](NC(=O)[C@H](CCCN=C(N)N)NC(=O)CNC(=O)CNC(=O)[C@H](Cc1ccccc1)NC(=O)[C@@H](N)CO)[C@@H](C)CC)C(=O)NCC(=O)N[C@@H](C)C(=O)N[C@@H](CCC(N)=O)C(=O)N[C@@H](CO)C(=O)NCC(=O)N[C@@H](CC(C)C)C(=O)NCC(=O)N[C@@H](CC(N)=O)C(=O)N[C@@H](CO)C(=O)N[C@@H](Cc1ccccc1)C(=O)N[C@@H](CCCN=C(N)N)C(=O)N[C@@H](Cc1ccc(O)cc1)C(=O)O` (H-SFGGRIDRIGAQSGLGNSFRY-OH), the Ratio in experiment [1] is above 285. This compound also had a pIC50 in experiment [2] of 9.46. The same compound returned an IC50 in experiment [3] above 100 nM.

`CC(C)C[C@H](NC(=O)[C@@H](N)CO)C(=O)N[C@@H](CCCN=C(N)N)C(=O)N[C@@H](CCCN=C(N)N)C(=O)N[C@@H](CO)C(=O)N[C@@H](CO)C(=O)N[C@@H](CS)C(=O)N[C@@H](Cc1ccccc1)C(=O)NCC(=O)NCC(=O)N[C@@H](CCCN=C(N)N)C(=O)O` (H-SLRRSSCFGGR-OH) showed a pIC50 in experiment [2] below 7.00. Also, the IC50 in experiment [3] is recorded as above 100 nM.

As to `CC[C@H](C)[C@@H]1NC(=O)[C@H](CCCN=C(N)N)NC(=O)[C@H](CC(=O)O)NC(=O)[C@H]([C@@H](C)CC)NC(=O)[C@H](CCCN=C(N)N)NC(=O)CNC(=O)CNC(=O)[C@H](Cc2ccccc2)NC(=O)[C@@H](NC(=O)[C@H](CO)NC(=O)[C@H](CO)NC(=O)[C@H](CCCN=C(N)N)NC(=O)[C@H](CCCN=C(N)N)NC(=O)[C@H](CC(C)C)NC(=O)[C@@H](N)CO)CSSC[C@@H](C(N)=O)NC(=O)[C@H](CCC(N)=O)NC(=O)[C@H](C)NC(=O)CNC1=O` (HELM PEPTIDE1{S.L.R.R.S.S.C.F.G.G.R.I.D.R.I.G.A.Q.C.[am]}$PEPTIDE1,PEPTIDE1,7:R3-19:R3$$$V2.0), the Ratio in experiment [1] is 312. In experiment [2], the pIC50 is 9.80. The compound also registered an IC50 in experiment [3] of 52 nM.

Take `CC[C@H](C)[C@@H]1NC(=O)[C@H](CCCN=C(N)N)NC(=O)[C@H](CC(=O)O)NC(=O)[C@H]([C@@H](C)CC)NC(=O)[C@H](CCCN=C(N)N)NC(=O)CNC(=O)CNC(=O)[C@H](Cc2ccccc2)NC(=O)[C@@H](NC(=O)[C@H](CO)NC(=O)[C@@H](N)CO)CSSC[C@@H](C(=O)N[C@@H](CC(N)=O)C(=O)N[C@@H](CO)C(=O)O)NC(=O)CNC(=O)[C@H](CC(C)C)NC(=O)CNC(=O)[C@H](CO)NC(=O)[C@H](CCC(N)=O)NC(=O)[C@H](C)NC(=O)CNC1=O` (HELM PEPTIDE1{S.S.C.F.G.G.R.I.D.R.I.G.A.Q.S.G.L.G.C.N.S}$PEPTIDE1,PEPTIDE1,3:R3-19:R3$$$V2.0): the Ratio in experiment [1] worked out at 46. Also, the pIC50 in experiment [2] was 9.11. Also, the IC50 in experiment [3] was found to be 36 nM.

With `CC[C@H](C)[C@H](NC(=O)[C@H](CCCN=C(N)N)NC(=O)[C@H](CC(=O)O)NC(=O)[C@@H](NC(=O)[C@H](CCCN=C(N)N)NC(=O)CNC(C)=O)[C@@H](C)CC)C(=O)NCC(N)=O` [GRIDRIG] (Ac-GRIDRIG-NH2), the Ratio in experiment [1] is above 1.5. The compound also gave a pIC50 in experiment [2] of 7.19. For the same compound, the IC50 in experiment [3] is listed as above 100 nM.
